This note sets out measurements from ChEMBL document CHEMBL1201862, “PubChem BioAssay data set” (2004).

Counter-ions that a name gives are not always drawn. The source made the active and inactive calls.

By IC50 is commonly meant the concentration that gives 50% inhibition. By AC50 is commonly meant the midpoint of the concentration-response curve, whichever way the signal moves.

The target in experiment [1] is T1, Voltage-gated N-type calcium channel alpha-1B subunit/Amyloid beta A4 precursor protein-binding family A member 1 (Homo sapiens, UniProt Q00975+Q02410). The experiment is classed as protein assay.
Experiment [2] has as its target T1, Voltage-gated N-type calcium channel alpha-1B subunit/Amyloid beta A4 precursor protein-binding family A member 1. Format: protein assay. The source holds these as a separate data set.
For experiment [3], the target named is Bifunctional protein GlmU (Mycobacterium tuberculosis, UniProt P9WMN3). Put plainly: Inhibitors of Mycobacterial Glucosamine-1-phosphate acetyl transferase (GlmU). Secondary screen. Further details: species or system Mycobacterium tuberculosis H37Rv.
The target of experiment [4] is Glucose-6-phosphate 1-dehydrogenase (Homo sapiens, UniProt P11413). Put plainly: human G6PD enzyme inhibitors, dose response, selectivity assay for P. falciparum G6PD inhibitor project, biochemical, fluorescence (AID 504792). The experiment is classed as functional.
Experiment [5] deals with Eukaryotic translation initiation factor 4E (Mus musculus, UniProt P63073). Put plainly: eIF4E–eIF4G protein interaction inhibitors, dose response, biochemical, TR-FRET (AID 855).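 Note: potency for disrupting eIF4E binding to eIF4GI seen as loss of FRET.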 Format: functional. On the technique in general: Time-resolved FRET reads energy transfer from a long-lived donor to a nearby acceptor.
Another experiment has as its system H9c2. Put plainly: cells. To be noted: Rattus norvegicus, H9c2, Myocardium. The experiment is classed as functional, cell-based.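 Note: confirmatory concentration-response retest of ultra-high-throughput screening hits for modulation of myocardial damage; cell death induced by hydrogen peroxide oxidative stress; compound pretreatment for 60 min then peroxide exposure for 2 h; potency is for protecting the cells against peroxide damage rather than for killing them.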
A short description of experiment [6]: Dose-response inhibition of insulin secretion in a rat insulinoma line at 5 mM glucose (AID 1117331). The experiment is classed as functional, cell-based. To be noted: INS-1E.
A short description of the next experiment: cells. To be noted: INS-1E. Format: functional, cell-based.
The nature of experiment [7]: TRPM1 promoter luciferase reporter signal decrease, dose response, MITF inhibitor project, cell-based, SK-MEL-5, dry powder, set 9 (AID 651588). Format: functional.
The nature of experiment [8]: A375 melanoma cell viability loss, dose response, counter-screen for MITF inhibitor project, CellTiter-Glo luminescence, dry powder, set 4 (AID 624364).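 Note: A375 melanoma cells are MITF independent so this is a counter screen.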 The experiment is classed as functional, cell-based. To be noted: A-375. A general note: A counterscreen serves to expose hits that act by an unwanted route or on another target.
The nature of experiment [9]: A375 melanoma cell cytotoxicity, dose response, counter-screen for MITF inhibitor project, CellTiter-Glo luminescence, dry powder, set 7 (AID 624490). Format: functional, cell-based. The conditions noted are these: A-375.
Experiment [10] in a line: MITF Orthogonal Assay: MALME3 CTG Assay Measured in Cell-Based System Using Plate Reader - 2084-04_Inhibitor_Dose_DryPowder_Activity_Set6. Format: functional. To be noted: MALME-3.
Experiment [11] can be described thus: SK-MEL-5 parental cell viability reduction, dose response, orthogonal assay for MITF inhibitor project, CellTiter-Glo luminescence, dry powder, set 8 (AID 651586). Format: functional, cell-based. (In ATP-based viability assays light output follows the ATP content of the culture.)
Experiment [12] is described as follows: MALME3 melanoma cell viability reduction, dose response, orthogonal assay for MITF inhibitor project, CellTiter-Glo luminescence, dry powder, set 5 (AID 651584). The experiment is classed as functional, cell-based. The conditions noted are these: MALME-3.
The nature of experiment [13]: SK-MEL-5 parental line viability, dose response, MITF inhibitor project, cell-based, CellTiter-Glo, dry powder, set 6 (AID 624429). The experiment is classed as functional.
Experiment [14] in a line: MITF Orthogonal Assay: SK-MEL-5 CTG Assay Measured in Cell-Based System Using Plate Reader - 2084-02_Inhibitor_Dose_DryPowder_Activity_Set5. The experiment is classed as functional.
Experiment [15] in a line: MITF Measured in Cell-Based System Using Plate Reader - 2084-01_Inhibitor_Dose_DryPowder_Activity_Set6. The experiment is classed as functional.
Experiment [16] can be described thus: MITF Measured in Cell-Based System Using Plate Reader - 2084-01_Inhibitor_Dose_DryPowder_Activity_Set7. Format: functional.
A short description of experiment [17]: cytotoxicity in primary human melanocytes, dose response, cytotoxicity control, cell-based, plate reader, dry powder (AID 651920). Format: functional.
A short description of experiment [18]: P. falciparum late gametocyte killing, dose response, luminescence (AID 1117278).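 Note: gametocytes exposed to compound for 24 hours.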 Format: functional, cell-based.
A short description of experiment [19]: Jurkat T cell cytotoxicity, dose response, cytotoxicity control for P. falciparum gametocyte viability project, luminescence (AID 1117277).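 Note: potency reflects loss of cellular ATP meaning fewer viable cells.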 The experiment is classed as functional, cell-based.
Experiment [20] concerns the target Ras and Rab interactor 1/Tyrosine-protein kinase ABL1 (Homo sapiens, UniProt P00519+Q13671). The experiment is classed as functional.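 Note: biochemical TR-FRET dose-response test measuring inhibition of binding between Rin1 and Abl proteins.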
Experiment [21] in a line: A549 cell cytotoxicity, dose response, CellTiter-Glo luminescence, dry powder, set 17 (AID 1117284). Format: functional, cell-based.
A short description of experiment [22]: Mtb BioA inhibitors by displacement, dose response, biochemical, coupled fluorescence displacement, 20-point, dry powder (AID 743357). Format: functional.

T1 sequence (Q00975 whole entry): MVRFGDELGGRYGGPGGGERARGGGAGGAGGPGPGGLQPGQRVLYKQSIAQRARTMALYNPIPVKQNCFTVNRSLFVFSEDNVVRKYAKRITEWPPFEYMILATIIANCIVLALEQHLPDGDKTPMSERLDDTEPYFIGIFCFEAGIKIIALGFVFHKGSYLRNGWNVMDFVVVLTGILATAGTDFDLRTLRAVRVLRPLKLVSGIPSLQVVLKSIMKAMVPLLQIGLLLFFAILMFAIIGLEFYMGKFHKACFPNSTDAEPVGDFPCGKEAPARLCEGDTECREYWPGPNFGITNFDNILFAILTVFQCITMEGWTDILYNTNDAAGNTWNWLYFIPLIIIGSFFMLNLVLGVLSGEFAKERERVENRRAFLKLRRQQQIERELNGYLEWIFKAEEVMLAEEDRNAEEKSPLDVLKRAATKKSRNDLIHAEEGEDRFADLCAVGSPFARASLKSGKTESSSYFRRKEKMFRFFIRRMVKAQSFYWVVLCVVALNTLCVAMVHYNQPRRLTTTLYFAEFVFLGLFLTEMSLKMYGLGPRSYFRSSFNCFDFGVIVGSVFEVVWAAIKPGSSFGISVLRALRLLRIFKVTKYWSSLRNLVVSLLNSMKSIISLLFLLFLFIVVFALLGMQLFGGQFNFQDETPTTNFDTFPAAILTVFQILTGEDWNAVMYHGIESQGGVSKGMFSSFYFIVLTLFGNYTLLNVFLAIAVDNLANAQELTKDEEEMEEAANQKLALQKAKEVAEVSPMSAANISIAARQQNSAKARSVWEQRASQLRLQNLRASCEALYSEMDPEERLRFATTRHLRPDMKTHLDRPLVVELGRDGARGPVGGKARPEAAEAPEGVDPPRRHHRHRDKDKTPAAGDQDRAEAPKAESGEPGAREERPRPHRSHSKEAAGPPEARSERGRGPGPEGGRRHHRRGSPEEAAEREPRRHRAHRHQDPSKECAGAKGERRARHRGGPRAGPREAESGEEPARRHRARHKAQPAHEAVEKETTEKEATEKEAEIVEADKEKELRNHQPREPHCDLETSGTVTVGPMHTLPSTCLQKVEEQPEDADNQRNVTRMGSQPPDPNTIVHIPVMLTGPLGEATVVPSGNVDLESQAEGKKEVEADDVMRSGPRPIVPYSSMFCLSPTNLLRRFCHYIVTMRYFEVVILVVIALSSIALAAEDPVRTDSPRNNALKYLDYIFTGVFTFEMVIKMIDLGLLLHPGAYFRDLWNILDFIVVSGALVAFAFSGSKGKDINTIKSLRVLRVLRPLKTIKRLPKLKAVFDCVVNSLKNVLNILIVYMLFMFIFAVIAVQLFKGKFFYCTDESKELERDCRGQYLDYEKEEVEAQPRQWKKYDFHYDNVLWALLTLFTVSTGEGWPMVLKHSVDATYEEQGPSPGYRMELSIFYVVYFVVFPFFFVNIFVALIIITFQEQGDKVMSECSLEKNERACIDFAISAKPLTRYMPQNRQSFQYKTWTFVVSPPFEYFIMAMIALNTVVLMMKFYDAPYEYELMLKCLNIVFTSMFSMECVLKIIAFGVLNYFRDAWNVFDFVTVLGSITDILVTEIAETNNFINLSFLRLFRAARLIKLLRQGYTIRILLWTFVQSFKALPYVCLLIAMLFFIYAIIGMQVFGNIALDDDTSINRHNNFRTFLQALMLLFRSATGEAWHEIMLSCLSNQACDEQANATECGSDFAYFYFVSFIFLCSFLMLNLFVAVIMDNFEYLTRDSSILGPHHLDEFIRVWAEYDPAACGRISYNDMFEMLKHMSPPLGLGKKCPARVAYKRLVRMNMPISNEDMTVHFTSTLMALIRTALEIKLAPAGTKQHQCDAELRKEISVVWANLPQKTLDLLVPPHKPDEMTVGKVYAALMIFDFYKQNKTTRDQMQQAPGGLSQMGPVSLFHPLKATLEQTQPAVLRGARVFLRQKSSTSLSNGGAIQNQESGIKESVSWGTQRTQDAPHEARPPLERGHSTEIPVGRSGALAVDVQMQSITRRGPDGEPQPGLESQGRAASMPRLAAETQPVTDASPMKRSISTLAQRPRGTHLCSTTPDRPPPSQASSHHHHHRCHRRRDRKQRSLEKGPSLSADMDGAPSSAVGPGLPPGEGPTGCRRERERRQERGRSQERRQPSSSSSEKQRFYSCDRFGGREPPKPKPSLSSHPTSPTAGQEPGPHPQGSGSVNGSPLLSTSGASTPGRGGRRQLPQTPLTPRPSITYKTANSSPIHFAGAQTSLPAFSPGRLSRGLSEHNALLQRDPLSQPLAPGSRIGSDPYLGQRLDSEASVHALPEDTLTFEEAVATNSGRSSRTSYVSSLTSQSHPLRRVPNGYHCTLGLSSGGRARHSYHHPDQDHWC
T1 sequence (Q02410 whole entry): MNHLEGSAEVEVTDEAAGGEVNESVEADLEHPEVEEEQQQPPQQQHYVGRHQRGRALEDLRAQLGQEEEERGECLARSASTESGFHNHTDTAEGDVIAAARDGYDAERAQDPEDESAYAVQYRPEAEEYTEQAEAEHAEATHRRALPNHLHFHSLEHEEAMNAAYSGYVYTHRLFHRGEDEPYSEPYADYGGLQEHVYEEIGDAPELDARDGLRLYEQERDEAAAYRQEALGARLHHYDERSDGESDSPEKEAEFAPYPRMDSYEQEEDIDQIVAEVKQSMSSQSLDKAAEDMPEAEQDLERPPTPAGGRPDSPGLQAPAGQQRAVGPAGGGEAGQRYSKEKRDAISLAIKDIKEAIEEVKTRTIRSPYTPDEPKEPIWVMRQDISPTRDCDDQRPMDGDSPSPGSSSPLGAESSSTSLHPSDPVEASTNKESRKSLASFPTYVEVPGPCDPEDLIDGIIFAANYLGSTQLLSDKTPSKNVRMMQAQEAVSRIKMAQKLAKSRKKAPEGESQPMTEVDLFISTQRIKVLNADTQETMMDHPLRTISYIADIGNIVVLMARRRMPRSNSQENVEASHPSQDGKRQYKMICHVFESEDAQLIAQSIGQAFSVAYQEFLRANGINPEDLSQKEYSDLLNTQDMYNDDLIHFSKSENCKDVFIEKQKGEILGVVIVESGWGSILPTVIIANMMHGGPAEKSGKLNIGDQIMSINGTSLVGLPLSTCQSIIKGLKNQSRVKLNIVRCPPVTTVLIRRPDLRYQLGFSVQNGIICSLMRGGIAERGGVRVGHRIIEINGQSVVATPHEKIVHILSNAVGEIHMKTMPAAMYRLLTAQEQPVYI
Ras and Rab interactor 1/Tyrosine-protein kinase ABL1, sequence (P00519 whole entry): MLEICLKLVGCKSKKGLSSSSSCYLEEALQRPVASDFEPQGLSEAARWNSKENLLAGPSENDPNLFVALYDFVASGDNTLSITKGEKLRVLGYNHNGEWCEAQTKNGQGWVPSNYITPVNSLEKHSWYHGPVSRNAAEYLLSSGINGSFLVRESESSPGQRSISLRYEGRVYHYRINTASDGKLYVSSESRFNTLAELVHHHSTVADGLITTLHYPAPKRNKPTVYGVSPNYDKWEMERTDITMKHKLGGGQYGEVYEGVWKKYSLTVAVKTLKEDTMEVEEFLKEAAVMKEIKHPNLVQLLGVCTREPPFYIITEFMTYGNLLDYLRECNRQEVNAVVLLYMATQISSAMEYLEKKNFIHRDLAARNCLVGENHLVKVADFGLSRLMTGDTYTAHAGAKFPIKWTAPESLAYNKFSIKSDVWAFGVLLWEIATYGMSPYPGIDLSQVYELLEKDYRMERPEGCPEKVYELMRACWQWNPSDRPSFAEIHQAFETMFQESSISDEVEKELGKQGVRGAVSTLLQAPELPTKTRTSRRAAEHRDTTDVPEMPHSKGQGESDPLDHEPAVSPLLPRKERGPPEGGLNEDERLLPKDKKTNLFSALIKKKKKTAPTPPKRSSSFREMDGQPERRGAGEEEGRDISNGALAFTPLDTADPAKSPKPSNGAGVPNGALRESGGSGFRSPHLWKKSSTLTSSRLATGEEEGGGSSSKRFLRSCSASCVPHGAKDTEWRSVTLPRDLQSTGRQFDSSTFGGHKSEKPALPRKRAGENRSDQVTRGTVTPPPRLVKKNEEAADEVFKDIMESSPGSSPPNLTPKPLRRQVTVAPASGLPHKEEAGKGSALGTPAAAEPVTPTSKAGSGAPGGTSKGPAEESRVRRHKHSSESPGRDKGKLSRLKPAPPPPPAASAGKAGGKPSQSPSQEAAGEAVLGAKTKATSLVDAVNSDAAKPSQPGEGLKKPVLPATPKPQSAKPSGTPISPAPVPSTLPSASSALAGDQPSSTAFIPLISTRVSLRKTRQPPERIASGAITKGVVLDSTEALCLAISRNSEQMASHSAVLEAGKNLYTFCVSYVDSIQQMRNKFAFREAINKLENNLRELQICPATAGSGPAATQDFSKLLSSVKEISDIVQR
Ras and Rab interactor 1/Tyrosine-protein kinase ABL1, sequence (Q13671 whole entry): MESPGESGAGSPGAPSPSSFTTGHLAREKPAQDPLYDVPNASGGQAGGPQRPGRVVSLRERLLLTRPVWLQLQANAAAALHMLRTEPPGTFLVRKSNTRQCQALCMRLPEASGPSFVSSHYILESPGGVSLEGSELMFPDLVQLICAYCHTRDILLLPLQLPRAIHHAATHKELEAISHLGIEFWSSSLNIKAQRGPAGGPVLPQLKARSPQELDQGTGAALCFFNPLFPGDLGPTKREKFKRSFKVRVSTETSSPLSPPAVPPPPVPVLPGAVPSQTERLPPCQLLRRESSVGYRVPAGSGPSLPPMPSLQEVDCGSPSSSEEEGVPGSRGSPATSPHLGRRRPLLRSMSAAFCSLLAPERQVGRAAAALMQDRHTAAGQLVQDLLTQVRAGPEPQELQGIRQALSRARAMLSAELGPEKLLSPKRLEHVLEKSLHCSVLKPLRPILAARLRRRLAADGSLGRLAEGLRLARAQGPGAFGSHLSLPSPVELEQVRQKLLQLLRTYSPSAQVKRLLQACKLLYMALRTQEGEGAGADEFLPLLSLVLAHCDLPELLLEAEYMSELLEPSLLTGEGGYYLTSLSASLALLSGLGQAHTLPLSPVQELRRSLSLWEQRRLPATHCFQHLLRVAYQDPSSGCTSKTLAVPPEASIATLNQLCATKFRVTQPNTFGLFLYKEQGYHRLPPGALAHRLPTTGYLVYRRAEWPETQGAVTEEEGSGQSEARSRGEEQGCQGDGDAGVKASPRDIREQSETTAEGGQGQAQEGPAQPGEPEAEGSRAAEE

With `O=C1Nc2ccccc2C(=O)C1(Cl)Cc1ccccc1` (centres undefined), the IC50 in experiment [1] was 23.3 µM (active); in experiment [2], > 50 µM (inactive); in [3], 62.9 µM (active); in experiment [4], > 80 µM (inactive); in experiment [5], > 64 µM (inactive); in the experiment with H9c2, 17.2 µM (active).
Take `NCc1ccc(S(N)(=O)=O)cc1` [MAFENIDE HYDROCHLORIDE]: the IC50 (in experiment [6]; in “cells”) was > 33.3 µM (inactive) each time.
With `O=C1C=C(NS(=O)(=O)c2cccs2)C(=O)c2ccccc21`, the AC50 in experiment [7] is 16.9 µM (active); in experiment [8] it was > 70 µM (inactive); in [9] it was > 70 µM (inactive); in [10], 57.6 µM (active); in experiment [11], 32.8 µM (active); in [12], 57.6 µM (active). The AC50 in experiment [13] is 13.3 µM (active); in [14], 15.8 µM (active); in experiment [15] it was 6.01 µM (active); in [16] it was 5.89 µM (active); in experiment [17], 17.6 µM (active).
Regarding `COc1ccc(CC(=O)Nc2cccc(-c3ccc4nnc(C)n4n3)c2)cc1OC`, the values for the IC50 in experiment [18] and in experiment [19] were > 109 µM (inactive) and 35.6 µM (inactive), respectively.
For the compound `C[C@@H]1CN([C@H](C)CO)S(=O)(=O)c2ccc(C#C[C@@H](C)O)cc2O[C@@H]1CN(C)Cc1ccc(-c2ccccc2)cc1`, the IC50 in experiment [20] is 9.68 µM (active). Moreover, the AC50 in experiment [21] is 36.1 µM (active).
On to `O=C(c1ccc2c(c1)OCO2)N1CCN(c2ccc(S(=O)(=O)C(F)F)cc2)CC1`, for which the AC50 in experiment [22] was 16.7 µM (active).
